Data as given in patent publication EP4644375A1, “SUBSTITUTED HYDROQUINOLINES FOR THE TREATMENT OF GLIOBLASTOMA MULTIFORME” (Molius Saglik Teknolojileri Anonim Sirketi, priority 2024, dated 2025).
Entries after “also recorded” stand apart in the source; their conditions may differ.

What was measured:
GBM xenograft rat model [1] = test: In vivo GBM rat model: MRI analysis of tumor volumes; conditions: GBM rats, 30 mg/kg oral, 5 days; for antitumor activities, order: ranking; for tumor size: MRI 14th vs 28th day
Procedure: (§1) An in Vivo study was performed to assess the therapeutic potential of TR-G002, TR-G045, TR-G053, TR-G066, TR-G071 and TR-G091 in the GBM xenograft rat model when administered orally by gavage for five consecutive days. 152 female rats of the Sprague Dawley strain were allocated to the study. Six groups of sixteen females were given dose of 30 mg/kg of the respective target compounds. […] The study design can be seen in Fig. 11 and Table 10.
(§2) Female Sprague Dawley rats (age: 6-8 weeks; weight: 255-310 g; ATADEM, Erzurum, Turkey) were utilized in the study. Rats underwent anaesthesia with 5% isoflurane, maintained at 2% isoflurane (1 L/min oxygen), and were positioned in a stereotactic frame for cell implantation (Stoelting Co., IL). […] A burr hole was drilled 1-mm anterior and 3-mm lateral to the right bregma. A microsyringe (Hamilton 1700 series) containing 5×10^4 U87-MG cells suspended in 5 µL of medium at 37 °C was advanced to a depth of 4 mm into the brain. The cells were injected at a rate of 3 µL/ min. Bone wax was used to fill the burr hole to prevent cell suspension reflux. The incision was sutured, and 1 mL of Meloxicam (5 mg/mL; Metacam, Boehringer Ingelheim Vetmedica, Ingelheim, Germany) was administered via a subcutaneous injection.
(§3) Fourteen days after inoculation, tumor development in rats was visualized and confirmed through magnetic resonance imaging (MRI). Rats confirmed to have developed tumors were then distributed into six different groups for treatment. […] 9 days after the final treatment dose, the rats underwent another MRI scan and blood and brain samples were taken under anaesthesia.
The anaesthetic was administered via an intraperitoneal route on animals fixed in the supine position with parallel hind limbs. MRI was performed using a 3 Tesla clinical scanner (Magnetom Skyra; Siemens Healthineers, Erlangen, Germany). Rats were placed in the prone position. T2-SPACE (sampling perfection with application-optimized contrast using different flip angle Evolution) sequence was obtained to view the brain in coronal and transverse planes. (TR: 6000 ms, TE: 100 ms, voxel size: 0.5 × 0.5 × 1 mm, 34 slices, slice thickness: 2 mm, slice spacing: 0.6 mm). The volume measurements of brain tumors were performed manually. One radiologist calculated the tumour volume - manually measuring tumour length (L), width (W), and height (H) - and then calculated the tumour volume using the formula 0.5236 × L × W × H (Stuppner S et al., 2020).

GBM xenograft rat model [2] = test: In vivo GBM rat model: histopathological examination of brain tissues; conditions: H&E, GBM rats, 30 mg/kg oral, 5 days
Procedure: as §1, §2, §3
Brain tissue samples were fixed in a 10% buffered formaldehyde solution. After fixation, the tissues were processed through graded alcohol and xylene series and embedded in paraffin blocks. Sections of 5 µm thickness were taken from the paraffin blocks at intervals of 50-100 µm. Hematoxylin and eosin staining was performed on these sections to evaluate histopathological changes. Histopathological findings included tumor focus size, necrotic area, vascular proliferation, and cellular proliferation patterns. Tumor focus size was categorized as follows based on the diameter measured with a 4X objective on the microscope: >3500 µm was considered very severe, 3499-2000 µm severe, 1999-1000 µm moderate, 999-500 µm mild, and <500 µm very mild. Necrotic area size was classified based on the diameter of necrosis: >1500 µm as very severe, 1499-1000 µm severe, 999-500 µm moderate, 499-200 µm mild, and <199 µm very mild.

[3] = In vivo GBM rat model: plasma chemistry; design: CREA. / UA / TCHOL / HDLC: unit not given here; conditions: for ALP / ALT / AST / CREA. / GLU / HDLC / LDH / LDL C / TCHOL / TG / UA: GBM rats, 30 mg/kg oral, 5 days, plasma at necropsy; for levels of AST, ALT and LDH: in comparison to the levels in untreated GBM rats
Procedure: (§4) The parameters that were analysed can be seen in Table 11.

NOP10 = test: In vivo GBM rat model: double immunofluorescence examination; conditions: neurons, brain tissues, GBM rats, 30 mg/kg oral, 5 days
Procedure: (§5) In immunofluorescence examinations, primary antibody (NOP10 Cat no: ab134902 dilution ratio: 1/100) was applied to tissues and incubated according to the instructions. A fluorescent secondary antibody (FITC Cat No: ab6785 dilution Ratio: 1/1000 UK) was then applied and incubated in the dark for 45 minutes. Afterward, a second primary antibody (H2A.X Cat no: sc-517336 dilution ratio: 1/100) was applied and incubated according to the instructions. A different fluorescent secondary antibody (Texas Red Cat No: ab6719 dilution Ratio: 1/1000 UK) was applied and incubated in the dark for 45 minutes. Finally, DAPI (Cat no: D1306 dilution ratio: 1/200 UK) was applied to the sections for 5 minutes in the dark, followed by covering the tissues with coverslips. The stained tissues were examined under a fluorescence attachment-equipped microscope (Zeiss AXIO, Germany).
(§6) Individual body weights were manually calculated. Group mean body weights; group mean body weight changes and organ weights were also manually calculated without statistical analysis. To determine the density of positive staining from immunohistochemical and immunofluorescence staining images, five randomly selected areas were evaluated using ZEISS Zen Imaging Software. Data were statistically defined as mean and standard deviation (mean ± SD) for the percentage of the area. One-way ANOVA followed by the Tukey test was performed to compare immunoreactive cells and immune-positive stained areas with healthy controls. GraphPad Prism software was used for analysis.

H2A.X = test: as above; conditions: neurons, brain tissues, GBM rats, 30 mg/kg oral, 5 days
Procedure: as §5, §6

[4] = In vivo GBM rat model: haematology; conditions: GBM rats, 30 mg/kg oral, 5 days, blood at necropsy
Procedure: as §4

Ki67 = test: In vivo GBM rat model: immunohistochemical examination; conditions: tumor cells, brain tissues, GBM rats, 30 mg/kg oral, 5 days
Text: (§7) For immunohistochemical examinations, primary antibodies (Ki67 Cat no: ab15580 dilution ratio: 1/100; CMPK2 Cat no: PA5-34461, dilution ratio: 1/100, GFAP Cat no: ab6842 dilution ratio: 1/100) were used. 3-3' Diaminobenzidine (DAB) was used as chromogen. Mayer's hematoxylin was used for counterstaining. Sections were examined under a light microscope (Zeiss AXIO, Germany).
as §6

GFAP = test: as above; conditions: brain tissues, GBM rats, 30 mg/kg oral, 5 days
Text: as §7, §6

CMPK2 = test: as above; conditions: tumor cells, brain tissues, GBM rats, 30 mg/kg oral, 5 days
Text: as §7, §6

SMILES | antitumor activities, order (GBM xenograft rat model [1]) | ALP [3] | ALT [3] | AST [3] | CREA. [3] | GLU [3] | HDLC [3] | LDH [3] | LDL C [3] | TCHOL [3] | TG [3] | UA [3] | expressions of Nopio (NOP10) | expressions of H2AX (H2A.X) | HCT [4] | HGB [4] | MCH [4] | MCHC [4] | MCV [4] | PLT [4] | also measured
C=Cc1ccc(COc2ccc3c(c2)CCC(=O)N3)cc1 [TR-G053, 6-((4-vinylbenzyl)oxy)-3,4-dihydroquinolin-2(1H)-one] | TR-G066> TR-G045> TR-G002>TMZ> TR-G091> TR-G053> TR-G071 | 125.67 IU/L | 44.57 IU/L | 96.87 IU/L | 0.34 | 293 mg/dL | 34.33 | 514 IU/L | 5.63 mmol/L | 56.33 | 117 mg/dL | 1.64 | severe | severe | 48.77% | 14.67 g/dL | 17.83 pg | 30.07 g/dL | 59.33 fL | 823.33 10^9 /L | cellular proliferation / mitosis (GBM xenograft rat model [2]): intense mitosis around blood vessels; necrosis (grade) (GBM xenograft rat model [2]): Severe; tumor focus (description) (GBM xenograft rat model [2]): tumor focus including both grey and white matter; levels of AST, ALT and LDH [3]: significantly decreased; RBC [4]: 8.23 10^12/L; WBC [4]: 3.40 10^9/L; expression of Ki67 (Ki67): severe; GFAP expression in astrocytes around the tumor (GFAP): mild; expression of CMPK2 (CMPK2): severe
CC(C)CCOc1ccc2c(c1)CCC(=O)N2 [TR-G002, 6-(isopentyloxy)-3,4-dihydroquinolin-2(1H)-one] | TR-G066> TR-G045> TR-G002>TMZ> TR-G091> TR-G053> TR-G071 | 124.22 IU/L | 48.37 IU/L | 129.93 IU/L | 0.31 | 317 mg/dL | 37.5 | 535.72 IU/L | 4.42 mmol/L | 54.38 | 115 mg/dL | 1.71 | mild | mild | 48.53% | 14.88 g/dL | 18.43 pg | 30.71 g/dL | 59.99 fL | 805.75 10^9 /L | tumor size (GBM xenograft rat model [1]): small increase in tumor size; cellular proliferation / mitosis (GBM xenograft rat model [2]): mild; tumor focus (description) (GBM xenograft rat model [2]): significantly reduced tumor focus; vascular proliferation (GBM xenograft rat model [2]): mild; RBC [4]: 8.11 10^12/L; WBC [4]: 3.65 10^9/L; expression of Ki67 (Ki67): mild; GFAP expression in astrocytes around the tumor (GFAP): severe; expression of CMPK2 (CMPK2): mild
O=C(COc1ccc2c(c1)CCC(=O)N2)N/N=C/c1cnc(-c2ccc(Cl)cc2)nc1 [TR-G066, (E)-N'-((2-(4-chlorophenyl)pyrimidin-5-yl)methylene)-2-((2-oxo-1,2,3,4-tetrahydroquinolin-6-yl)oxy)acetohydrazide] | TR-G066> TR-G045> TR-G002>TMZ> TR-G091> TR-G053> TR-G071 | 137.08 IU/L | 38.94 IU/L | 96.48 IU/L | 0.38 | 295 mg/dL | 34.24 | 476.16 IU/L | 4.94 mmol/L | 58.56 | 122 mg/dL | 1.7 | very mild | very mild | 46.30% | 15.00 g/dL | 18.51 pg | 31.11 g/dL | 59.60 fL | 799.14 10^9 /L | tumor size (GBM xenograft rat model [1]; 30 mg/kg): decrease in tumor size; also recorded: reduced the tumor size; tumor focus (description) (GBM xenograft rat model [2]): few tumor cells, particularly around blood vessels, rather than a distinct tumor focus shape; levels of AST, ALT and LDH [3]: significantly decreased; RBC [4]: 8.12 10^12/L; WBC [4]: 4.57 10^9/L; expression of Ki67 (Ki67): very mild; GFAP expression in astrocytes around the tumor (GFAP): very severe; expression of CMPK2 (CMPK2): very mild
O=C1CCc2cc(OS(=O)(=O)c3cccc4ccccc34)ccc2N1 [TR-G045, 2-oxo-1,2,3,4-tetrahydroquinolin-6-yl naphthalene-1-sulfonate] | TR-G066> TR-G045> TR-G002>TMZ> TR-G091> TR-G053> TR-G071 | 138.47 IU/L | 54.5 IU/L | 104.7 IU/L | 0.35 | 316 mg/dL | 37.58 | 506.78 IU/L | 5.28 mmol/L | 56.52 | 120 mg/dL | 1.6 | moderate | moderate | 47.24% | 14.12 g/dL | 18.46 pg | 30.54 g/dL | 60.48 fL | 845.60 10^9 /L | tumor size (GBM xenograft rat model [1]): decrease in tumor size; cellular proliferation / mitosis (GBM xenograft rat model [2]): moderate mitosis; necrotic cells (description) (GBM xenograft rat model [2]): Necrotic cells were present in the central regions; tumor focus size (grade) (GBM xenograft rat model [2]): moderate (1999-1000 µm moderate); vascular proliferation (GBM xenograft rat model [2]): vascular proliferation in the vicinity of healthy tissue; levels of AST, ALT and LDH [3]: significantly decreased; RBC [4]: 8.34 10^12/L; WBC [4]: 4.32 10^9/L; expression of Ki67 (Ki67): moderate; GFAP expression in astrocytes around the tumor (GFAP): moderate; expression of CMPK2 (CMPK2): moderate
